How the values were obtained:
[1] = tested on: IL-6 in A549 cells; assay: Cell-based IL-6 ELISA assay in IL-1beta stimulated A549 cells; settings: 2 ng/ml human IL-1beta overnight
Summary of the method: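 A549 cells (2.5×10^4/well, DMEM/10% FBS) pretreated 30 min at 37 C with compound, 10-point serial dilution from 10 uM, then stimulated overnight with 2 ng/ml human IL-1beta. Secreted IL-6 in supernatant quantified by human IL-6 ELISA.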

[2] = target: IRAK4 (Homo sapiens (Human), UniProt Q9NWZ3); assay: IRAK-4 AlphaScreen biochemical kinase assay; settings: 1 nM IRAK4, 1 mM ATP, 3.5 h at RT
Summary of the method: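 AlphaScreen read-out: streptavidin beads bind the biotinylated peptide and protein A beads bind the anti-phosphothreonine antibody, so energy transfer reports phosphorylation of the peptide. The kinase is human IRAK-4.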

Sequence of IRAK4 (Q9NWZ3 whole entry, species assumed): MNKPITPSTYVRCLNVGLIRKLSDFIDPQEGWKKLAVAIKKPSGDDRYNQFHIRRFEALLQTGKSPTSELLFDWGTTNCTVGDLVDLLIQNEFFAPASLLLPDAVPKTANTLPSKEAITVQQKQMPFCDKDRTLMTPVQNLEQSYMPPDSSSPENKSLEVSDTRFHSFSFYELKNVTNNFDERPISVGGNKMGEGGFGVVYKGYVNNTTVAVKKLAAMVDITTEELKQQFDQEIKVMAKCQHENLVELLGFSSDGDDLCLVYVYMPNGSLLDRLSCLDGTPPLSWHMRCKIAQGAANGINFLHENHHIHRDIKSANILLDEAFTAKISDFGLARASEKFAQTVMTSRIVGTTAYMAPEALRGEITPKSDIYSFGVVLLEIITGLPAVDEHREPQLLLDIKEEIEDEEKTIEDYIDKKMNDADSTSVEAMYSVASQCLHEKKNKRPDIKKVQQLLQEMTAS

Row | EC50 [1] | IC50 [2] | SMILES
1 | ≤ 1 µM | < 0.1 µM | CCC[C@H](N)c1cccc(-c2ccc3cnn(-c4nccc(C(F)F)n4)c3c2)n1 [Example 486, (S)-1-(6-(1-(4-(difluoromethyl)pyrimidin-2-yl)-1H-indazol-6-yl)pyridin-2-yl)butan-1-amine]
2 | ≤ 1 µM | < 0.1 µM | CCC[C@H](N)c1cccc(-c2cc(CF)c3cnn(-c4cccc(CO)n4)c3c2)n1 [Example 487, (S)-(6-(6-(6-(l-aminobutyl)pyridin-2-yl)-4-(fluoromethyl)-1H-indazol-1-yl)pyridin-2-yl)methanol]
3 | ≤ 1 µM | < 0.1 µM | CCC[C@H](N)c1cccc(-c2cc(C3=CCN(C(C)=O)CC3)c3cnn(-c4cccc(CO)n4)c3c2)n1 [Example 488, (S)-1-(4-(6-(6-(1-aminobutyl)pyridin-2-yl)-1-(6-(hydroxymethyl)pyridin-2-yl)-1H-indazol-4-yl)-5,6-dihydropyridin-1(2H)-yl)ethanone]
4 | ≤ 1 µM | < 0.1 µM | CCC[C@H](N)c1cccc(-c2cc(OC)c3cnn(-c4cncc(CO)n4)c3c2)n1 [Example 489, (S)-(6-(6-(6-(1-aminobutyl)pyridin-2-yl)-4-methoxy-1H-indazol-1-yl)pyrazin-2-yl)methanol]
5 | ≤ 1 µM | < 0.1 µM | CCC[C@H](N)c1cccc(-c2cc(Cl)c3cnn(-c4cccc(CO)n4)c3c2)n1 [Example 490, (S)-(6-(6-(6-(1-aminobutyl)pyridin-2-yl)-4-chloro-1H-indazol-1-yl)pyridin-2-yl)methanol]
6 | ≤ 1 µM | < 0.1 µM | CCC[C@H](N)c1cccc(-c2cc(C(F)F)c3cnn(-c4cccc(CO)n4)c3c2)n1 [Example 491, (S)-(6-(6-(6-(1-aminobutyl)pyridin-2-yl)-4-(difluoromethyl)-1H-indazol-1-yl)pyridin-2-yl)methanol]
7 | ≤ 1 µM | < 0.1 µM | CCC[C@H](N)c1cccc(-c2cc(CO)c3cnn(-c4cccc(CO)n4)c3c2)n1 [Example 492, (S)-(6-(6-(1-aminobutyl)pyridin-2-yl)-1-(6-(hydroxymethyl)pyridin-2-yl)-1H-indazol-4-yl)methanol]
8 | ≤ 1 µM | < 0.1 µM | CCCC[C@H](N)c1cccc(-c2ccc3cnn(-c4cccc(CO)n4)c3c2)n1 [Example 493, (S)-(6-(6-(6-(1-aminopentyl)pyridin-2-yl)-1H-indazol-1-yl)pyridin-2-yl)methanol]
9 | ≤ 1 µM | < 0.1 µM | CCC[C@H](N)c1cccc(-c2cc(C3=CCOCC3)c3cnn(-c4cccc(CO)n4)c3c2)n1 [Example 494, (S)-(6-(6-(6-(1-aminobutyl)pyridin-2-yl)-4-(3,6-dihydro-2H-pyran-4-yl)-1H-indazol-1-yl)pyridin-2-yl)methanol]
10 | ≤ 1 µM | < 0.1 µM | CCC[C@H](N)c1cccc(-c2cc(COC)c3cnn(-c4cccc(CO)n4)c3c2)n1 [Example 495, (S)-(6-(6-(6-(1-aminobutyl)pyridin-2-yl)-4-(methoxymethyl)-1H-indazol-1-yl)pyridin-2-yl)methanol]
11 | ≤ 1 µM | < 0.1 µM | COc1cc(-c2cccc([C@@H](N)C3CC3)n2)cc2c1cnn2-c1cncc(CO)n1 [Example 496, (S)-(6-(6-(6-(amino(cyclopropyl)methyl)pyridin-2-yl)-4-methoxy-1H-indazol-1-yl)pyrazin-2-yl)methanol]
12 | ≤ 1 µM | < 0.1 µM | CCC[C@H](N)c1cccc(-c2cc(COC(F)F)c3cnn(-c4cccc(CO)n4)c3c2)n1 [Example 497, (S)-(6-(6-(6-(1-aminobutyl)pyridin-2-yl)-4-((difluoromethoxy)methyl)-1H-indazol-1-yl)pyridin-2-yl)methanol]
13 | ≤ 1 µM | < 0.1 µM | CCC[C@H](N)c1cccc(-c2cc(CN3CCOCC3)c3cnn(-c4cccc(CO)n4)c3c2)n1 [Example 498, (S)-(6-(6-(6-(1-aminobutyl)pyridin-2-yl)-4-(morpholinomethyl)-1H-indazol-1-yl)pyridin-2-yl)methanol]
14 | ≤ 1 µM | < 0.1 µM | CCC[C@H](N)c1cccc(-c2cc(OCC)c3cnn(-c4cncc(CO)n4)c3c2)n1 [Example 499, (S)-(6-(6-(6-(1-aminobutyl)pyridin-2-yl)-4-ethoxy-1H-indazol-1-yl)pyrazin-2-yl)methanol]
15 | ≤ 1 µM | < 0.1 µM | CCOc1cc(-c2cccc([C@@H](N)CC)n2)cc2c1cnn2-c1cncc(CO)n1 [Example 500, (S)-(6-(6-(6-(1-aminopropyl)pyridin-2-yl)-4-ethoxy-1H-indazol-1-yl)pyrazin-2-yl)methanol]
16 | ≤ 1 µM | < 0.1 µM | CCOc1cc(-c2cccc([C@@H](N)C3CC3)n2)cc2c1cnn2-c1cncc(CO)n1 [Example 501, (S)-(6-(6-(6-(amino(cyclopropyl)methyl)pyridin-2-yl)-4-ethoxy-1H-indazol-1-yl)pyrazin-2-yl)methanol]
17 | ≤ 1 µM | < 0.1 µM | COc1cc(-c2cccc([C@@H](N)CCC(F)(F)F)n2)cc2c1cnn2-c1cccc(CO)n1 [Example 502, (S)-(6-(6-(6-(1-amino-4,4,4-trifluorobutyl)pyridin-2-yl)-4-methoxy-1H-indazol-1-yl)pyridin-2-yl)methanol]
18 | ≤ 1 µM | < 0.1 µM | CC[C@H](N)c1cccc(-c2cc(OC)c3cnn(-c4cncc(CO)n4)c3c2)n1 [Example 503, (S)-(6-(6-(6-(1-aminopropyl)pyridin-2-yl)-4-methoxy-1H-indazol-1-yl)pyrazin-2-yl)methanol]
19 | ≤ 1 µM | < 0.1 µM | CCC[C@H](N)c1cccc(-c2cc(OC)c3cnn(-c4nccc(C(F)(F)F)n4)c3c2)n1 [Example 504, (S)-1-(6-(4-methoxy-1-(4-(trifluoromethyl)pyrimidin-2-yl)-1H-indazol-6-yl)pyridin-2-yl)butan-1-amine]
20 | ≤ 1 µM | < 0.1 µM | CCC[C@H](N)c1cccc(-c2cc(OCC)c3cnn(-c4nccc(C(F)(F)F)n4)c3c2)n1 [Example 505, (S)-1-(6-(4-ethoxy-1-(4-(trifluoromethyl)pyrimidin-2-yl)-1H-indazol-6-yl)pyridin-2-yl)butan-1-amine]
21 | ≤ 1 µM | < 0.1 µM | CCC[C@H](N)c1cccc(-c2cc(OCC3CCCNC3)c3cnn(-c4cccc(CO)n4)c3c2)n1 (stereo partly drawn) [Example 506, (6-(6-(6-((S)-1-aminobutyl)pyridin-2-yl)-4-(piperidin-3-ylmethoxy)-1H-indazol-1-yl)pyridin-2-yl)methanol]
22 | ≤ 1 µM | < 0.1 µM | CCC(O)C(N)c1cccc(-c2ccc3cnn(-c4cccc(CO)n4)c3c2)n1 (stereo not drawn) [Example 507, 1-amino-1-(6-(1-(6-(hydroxymethyl)pyridin-2-yl)-1H-indazol-6-yl)pyridin-2-yl)butan-2-ol]
23 | ≤ 1 µM | < 0.1 µM | CC(O)CC(N)c1cccc(-c2ccc3cnn(-c4cccc(CO)n4)c3c2)n1 (stereo not drawn) [Example 508, 4-amino-4-(6-(1-(6-(hydroxymethyl)pyridin-2-yl)-1H-indazol-6-yl)pyridin-2-yl)butan-2-ol]
24 | ≤ 1 µM | < 0.1 µM | COCCC[C@H](N)c1cccc(-c2cc(OC)c3cnn(-c4cccc(CO)n4)c3c2)n1 [Example 509, (S)-(6-(6-(6-(1-amino-4-methoxybutyl)pyridin-2-yl)-4-methoxy-1H-indazol-1-yl)pyridin-2-yl)methanol]

— patent US10246456B2, “IRAK4 inhibiting agents” (BIOGEN MA INC., priority 2014, dated 2019)
